Activity calls are given as the source filed them. No cut-off for these calls is given here.
Experiments:
[1] = Induction of singlet oxygen production assessed as photodegradation of DPBF by measuring quantum yield after irradiation with 356 nanometer light by UV-Visible spectroscopic analysis; format: functional
A549 [2] = assay: Photocytotoxicity against human A549 cells assessed as reduction in cell viability preincubated for 1 hr followed blue LED light irradiation for 5 mins and measured after 24 hrs by MTT assay; format: functional, cell-based; details: for IC50: A549, light or radiation study
A549 [3] = assay: Photocytotoxicity against human A549 cells assessed as reduction in cell viability preincubated for 1 hr followed blue LED light irradiation for 10 mins and measured after 24 hrs by MTT assay; format: functional, cell-based; details: for IC50: A549, light or radiation study
MCF7 [4] = assay: Photocytotoxicity against human MCF7 cells assessed as reduction in cell viability preincubated for 1 hr followed blue LED light irradiation for 5 mins and measured after 24 hrs by MTT assay; format: functional, cell-based; details: for IC50: MCF7, light or radiation study
MCF7 [5] = assay: Photocytotoxicity against human MCF7 cells assessed as reduction in cell viability preincubated for 1 hr followed blue LED light irradiation for 10 mins and measured after 24 hrs by MTT assay; format: functional, cell-based; details: for IC50: MCF7, light or radiation study
HeLa [6] = assay: Photocytotoxicity against human HeLa cells assessed as reduction in cell viability preincubated for 1 hr followed blue LED light irradiation for 5 mins and measured after 24 hrs by MTT assay; format: functional, cell-based; details: for IC50: light or radiation study
HeLa [7] = assay: Photocytotoxicity against human HeLa cells assessed as reduction in cell viability preincubated for 1 hr followed blue LED light irradiation for 10 mins and measured after 24 hrs by MTT assay; format: functional, cell-based; details: for IC50: light or radiation study
[8] = Dark toxicity in human A549 cells assessed as reduction in cell viability up to 10 uM measured after 24 hrs by MTT assay; format: cell-based; details: a549, 24 h
[9] = Dark toxicity in human MCF7 cells assessed as reduction in cell viability up to 10 uM measured after 24 hrs by MTT assay; format: cell-based; details: mcf7, 24 h
[10] = Dark toxicity in human HeLa cells assessed as reduction in cell viability up to 10 uM measured after 24 hrs by MTT assay; format: cell-based
DNA [11] = assay: Induction of Escherichia coli pBR322 DNA cleavage at 20 uM after 30 mins under dark condition by agarose gel electrophoresis method; format: nucleic-acid assay; details: 0.5 h
HeLa [12] = assay: Induction of ROS generation in human HeLa cells preincubated for 1 hr followed by blue LED light irradiation for 15 mins by DHE staining based HCS analysis; format: functional, cell-based
HeLa [13] = assay: Photocytotoxicity against human HeLa cells assessed as plasma membrane blebbing up to 10 uM preincubated for 1 hr followed by blue LED light irradiation for 5 mins and measured after 13 hrs by Hoechst 33258 staining based fluorescence microscopic method; format: functional, cell-based
HeLa [14] = assay: Photocytotoxicity against human HeLa cells assessed as chromatin condensation up to 10 uM preincubated for 1 hr followed by blue LED light irradiation for 5 mins and measured after 13 hrs by Hoechst 33258 staining based fluorescence microscopic method; format: functional, cell-based
HeLa [15] = assay: Photocytotoxicity against human HeLa cells assessed as DNA fragmentation up to 10 uM preincubated for 1 hr followed by blue LED light irradiation for 5 mins and measured after 13 hrs by Hoechst 33258 staining based fluorescence microscopic method; format: functional, cell-based
HeLa [16] = assay: Photocytotoxicity against human HeLa cells assessed as cellular shrinkage up to 10 uM preincubated for 1 hr followed by blue LED light irradiation for 5 mins and measured after 13 hrs by Hoechst 33258 staining based fluorescence microscopic method; format: functional, cell-based
DNA [17] = assay: Induction of Escherichia coli pBR322 DNA cleavage irradiated with blue LED light after 30 mins by agarose gel electrophoresis method; format: nucleic-acid assay
DNA [18] = assay: Induction of Escherichia coli pBR322 DNA cleavage at 20 uM irradiated with blue LED light after 30 mins in presence of H2O2 scavenger KI by agarose gel electrophoresis method; format: nucleic-acid assay
DNA [19] = assay: Induction of Escherichia coli pBR322 DNA cleavage at 20 uM irradiated with blue LED light after 30 mins in presence of hydroxyl radical scavenger mannitol by agarose gel electrophoresis method; format: nucleic-acid assay
DNA [20] = assay: Induction of Escherichia coli pBR322 DNA cleavage at 20 uM irradiated with blue LED light after 30 mins in presence of singlet oxygen scavenger sodium azide by agarose gel electrophoresis method; format: nucleic-acid assay
HeLa [21] = assay: Photocytotoxicity against human HeLa cells assessed as reduction in cell viability at 2 uM preincubated for 1 hr followed blue LED light irradiation for 5 mins and measured after 24 hrs in presence of singlet oxygen scavenger histidine by MTT assay; format: functional, cell-based
[22] = Drug uptake in human HeLa cell mitochondria at 10 uM after 1 hr by mitotracker red staining based confocal laser scanning microscopic method; format: ADME
HeLa [23] = assay: Photocytotoxicity against human HeLa cells assessed as induction of mitochondrial membrane potential depolarization at 10 uM preincubated for 1 hr followed by blue LED light irradiation for 5 mins by TMRE staining based confocal microscopic method; format: functional, cell-based
MCF7 [24] = assay: Photocytotoxicity against human MCF7 cells assessed as induction of mitochondrial membrane potential depolarization at 10 uM preincubated for 1 hr followed by blue LED light irradiation for 5 mins by TMRE staining based confocal microscopic method; format: functional, cell-based
HeLa [25] = assay: Photocytotoxicity against human HeLa cells assessed as cell membrane blebbing at 10 uM preincubated for 1 hr followed by blue LED light irradiation for 5 mins by differential interference contrast imaging analysis; format: functional, cell-based
HeLa [26] = assay: Photocytotoxicity against human HeLa cells assessed as cell death at 0.5 uM preincubated for 1 hr followed blue LED light irradiation for 5 mins and measured after 24 hrs by MTT assay relative to control; format: functional
HeLa [27] = assay: Photocytotoxicity against human HeLa cells assessed as morphological changes at 5 uM preincubated for 1 hr followed by blue LED light irradiation for 10 mins and measured after 2.5 hrs by holotomographic method; format: functional, cell-based

Row | Compound | Activity [1] | Activity (A549 [2]) | IC50 (A549 [2]) | Activity (A549 [3]) | IC50 (A549 [3]) | Activity (MCF7 [4]) | IC50 (MCF7 [4]) | Activity (MCF7 [5]) | IC50 (MCF7 [5]) | Activity (HeLa [6]) | IC50 (HeLa [6]) | Activity (HeLa [7]) | IC50 (HeLa [7]) | Activity [8] | Activity [9] | Activity [10] | Activity (DNA [11]) | Activity (HeLa [12]) | Activity (HeLa [13]) | Activity (HeLa [14]) | also measured
1 | Cc1cccn2c1cc1c3ccccc3nc(-c3ccc(Cl)o3)c12 | 0.38 | Dose-dependent effect | 1430 nM | Dose-dependent effect | 1130 nM | Dose-dependent effect | 930 nM | Dose-dependent effect | 620 nM | Dose-dependent effect | 3510 nM | Dose-dependent effect | 2070 nM | Non-Toxic | Non-Toxic | Non-Toxic | Non-Toxic | Dose-dependent effect | Active | Active | Activity (HeLa [15]): Active; Activity (HeLa [16]): Active
2 | Brc1ccc2cc3c4ccccc4nc(-c4ccco4)c3n2c1 | 0.6 | Dose-dependent effect | 2160 nM | Dose-dependent effect | 1590 nM | Dose-dependent effect | 1330 nM | Dose-dependent effect | 830 nM | Dose-dependent effect | 1140 nM | Dose-dependent effect | 810 nM | Toxic | Toxic | Toxic | Non-Toxic | Dose-dependent effect | Active | Active | Activity (DNA [17]): Dose-dependent effect; Activity (HeLa [15]): Active; Activity (HeLa [16]): Active
3 | Cc1cccn2c1cc1c3ccccc3nc(-c3cccs3)c12 | 0.42 | Dose-dependent effect | 3380 nM | Dose-dependent effect | 1990 nM | Dose-dependent effect | 2680 nM | Dose-dependent effect | 1390 nM | Dose-dependent effect | 1170 nM | Dose-dependent effect | 550 nM | Non-Toxic | Non-Toxic | Non-Toxic | Non-Toxic | Dose-dependent effect | Active | Active | Activity (DNA [17]): Dose-dependent effect; Activity (DNA [18]): inactive; Activity (DNA [19]): Active; Activity (DNA [20]): inactive; Activity (HeLa [21]): inactive; Drug uptake [22]: Active; Activity (HeLa [23]): Active; Activity (MCF7 [24]): Active; Activity (HeLa [25]): Active; Activity (HeLa [15]): Active; Activity (HeLa [16]): Active
4 | c1csc(-c2nc3ccccc3c3cc4ccccn4c23)c1 | 0.4 | Dose-dependent effect | 4150 nM | Dose-dependent effect | 1990 nM | Dose-dependent effect | 3460 nM | Dose-dependent effect | 1550 nM | Dose-dependent effect | 1450 nM | Dose-dependent effect | 630 nM | Non-Toxic | Non-Toxic | Non-Toxic | Non-Toxic | Dose-dependent effect | Active | Active | Activity (DNA [17]): Dose-dependent effect; Activity (HeLa [21]): inactive; Activity (HeLa [15]): Active; Activity (HeLa [16]): Active
5 | Clc1ccc(-c2nc3ccccc3c3cc4ccccn4c23)s1 | 0.47 | Dose-dependent effect | 1330 nM | Dose-dependent effect | 1030 nM | Dose-dependent effect | 1680 nM | Dose-dependent effect | 1040 nM | Dose-dependent effect | 490 nM | Dose-dependent effect | 410 nM | Non-Toxic | Non-Toxic | Non-Toxic | Non-Toxic | Dose-dependent effect | Active | Active | Activity (HeLa [26]): >50%; Activity (HeLa [15]): Active; Activity (HeLa [16]): Active; Activity (HeLa [27]): Active

Source: ChEMBL document CHEMBL4145551, “Mitochondria-targeting indolizino[3,2-c]quinolines as novel class of photosensitizers for photodynamic anticancer activity” (Eur J Med Chem, 2018)
